Data published in patent US9605029B2, “Antibody-binding peptide” (NATIONAL INSTITUTE OF ADVANCED INDUSTRIAL SCIENCE AND …, priority 2013, dated 2017).
pKd, pKi: −log10 of the molar value. Read-outs that look alike come from different tables or passages of the source. Ends that are not written are not given here.

Columns and labels:
[1] = molecular target: rabbit IgG; settings: Non Patent Literature 5; cited from earlier work
[2] = molecular target: T1, Fc region prepared by digesting human monoclonal antibody IgG with papain (Homo sapiens, UniProt P01857); assay: Surface plasmon resonance, polypeptides on immobilized Fc region prepared from human monoclonal IgG (Example 2, 3) and 4); Example 8); type: binding
T1 construct: The Fc region to be immobilized to a sensor chip was prepared, by digesting human monoclonal antibody IgG with papain; made in house; host or cells: papain digest of human monoclonal IgG (Pierce Fab Preparation Kit), then MabSelect SuRe, HiTrap DEAE and Superdex 200
Method: The polypeptides, which were previously synthesized in an organic chemical manner were purchased from bio[…], were diluted with HBS-T buffer and controlled so as to have a concentration of 500, 400, 300, 200 or 100 nM. The surface plasmon resonance test was performed by using Biacore T100 (GE Healthcare). The Fc region to be immobilized to a sensor chip was prepared, by digesting human monoclonal antibody IgG with papain, in accordance with the instruction attached to Pierce (registered trade mark) Fab Preparation Kit (Thermo […]), followed by purifying by affinity chromatography using MabSelect SuRe (GE Healthcare), HiTrap DEAE anion exchange chromatography (GE Healthcare) and gel filtration chromatography using Superdex 200 (GE Healthcare). The Fc region prepared was immobilized to Sensor Chip CM5 (GE Healthcare) by the amine coupling method. The binding activity of the synthesized peptides prepared was measured and equilibrium dissociation constants were determined. Data were processed by use of Biacore TOO Evaluation Software (GE Healthcare).
4) In this section, it will be stated as an example that the binding activity of a polypeptide consisting of an amino acid sequence (referred to as p17) of SEQ ID NO: 57 was measured by surface plasmon resonance. The polypeptide was prepared by cleaving thioredoxin fusion protein p17_trx consisting of the amino acid sequence of SEQ ID NO: 86 with a protease and removing a thioredoxin portion. Since the thioredoxin fusion protein, which is produced by expression vector pET-48b (Novagen), has an HRV 3C protease cleavage site in the amino acid sequence, the desired polypeptide ligated to the C terminal can be obtained by use of protease.
DNA (SEQ ID NO: 124) encoding the thioredoxin fusion protein (SEQ ID NO: 86) containing p17 was synthesized by PCR and introduced to an expression vector, pET-48b (Novagen). Using the expression vector and in accordance with the same procedure as in Example, 1, 5), the thioredoxin fusion protein was prepared. The thioredoxin fusion protein (40 mg) was digested with 100 units of HRV 3C Protease (Novagen) at 4° C. under the reaction conditions according to the accompanying manual. The digested product was diluted in a 6 M guanidine hydrochloride solution and purified by gel filtration chromatography using Superdex Peptide 10/300 GL (GE Healthcare). Subsequently reverse phase chromatography using μRPC C2/C18 ST 4.6/100 (GE Healthcare) was performed to prepare a polypeptide p17 consisting of an amino acid sequence of SEQ ID NO: 57.
Subsequently, the binding activity of p17 prepared was measured by surface plasmon resonance by use of Biacore T100 (GE Healthcare).
Subsequently, the binding activity of five types of polypeptides prepared above was analyzed by surface plasmon resonance. Biacore T100 (GE Healthcare) was used in measurement. […]

[3] = tested on: Fc region (Jackson ImmunoResearch Laboratories, Inc.) labeled with horseradish peroxidase (HRP); assay: ELISA of recombinant phages displaying polypeptides (Example 1, 6); type: binding, human; settings: recombinant T7 phage displaying the polypeptide, absorbance at 415 nm
Method: 6) In this section, it will be stated as an example that the binding activity of recombinant phages transformed by nucleic acids encoding the amino acid sequences represented by SEQ ID NOs: 2 to 9 and 11 to 19 was measured by Enzyme Linked Immuno-Sorbent Assay (ELISA).
DNA molecules encoding the amino acid sequences of SEQ ID NOs: 2 to 9 and 11 to 19 were amplified by a polymerase chain reaction (PCR). PCR was carried out using KOD DNA polymerase (TOYOBO) under reaction conditions according to the accompanying manual. The amplified DNA molecules were each digested with restriction enzymes EcoRI and HindIII and ligated to 3′ terminal of g10 gene on T7 phage genomic DNA. Ligation to T7 phage genomic DNA was performed by use of a sample attached to T7Select10-3 Cloning Kit (Novagen) under the reaction conditions and in accordance with the procedure described in the accompanying T7Select (registered trade mark) System Manual. Using T7 phage genomic DNA ligated, T7 phage was packaged in a test tube by T7Select Packaging Kit (Novagen) under the reaction conditions in accordance with T7Select (registered trade mark) System Manual (Novagen). Subsequently, phage plaques were formed in accordance with T7Select (registered trade mark) System Manual (Novagen). From each of the plaques, a recombinant phage displaying the polypeptide was isolated. To MICROTEST (registered trade mark) 96 (BECTON, DICKINSON AND COMPANY), a culture solution (0.2 mL) of Escherichia coli BL5403 strain cultured in LB medium until O.D.600 reached 1.0 was poured to infect with the Escherichia coli cells each of the recombinant phages isolated from plaques and allowed to stand still at 37° C. for 12 hours to proliferate phages. The culture solution (10 μL) containing these phages was diluted in 90 μL of TBS buffer (50 mM Tris-HCl, 150 mM NaCl, pH 7.4) to prepare measurement samples.
The measurement samples were poured to MEDISORP 96 well microplate (Nunc) and allowed to stand still for one hour to allow the phage to physically adsorb to the plate. After the supernatant was removed, SuperBlock (registered trade mark) T20 (TBS) Blocking Buffer (Thermo […]) (150 μL) was poured to the plate and allowed to stand still for one hour to block the surface of the plate. The plate was washed three times with TBS-T buffer (50 mM Tris-HCl, 150 mM NaCl, 0.1% Tween 20 (registered trade mark), pH 7.4). To the plate, TBS-T buffer (100 μL) containing an Fc region (Jackson ImmunoResearch Laboratories, Inc.) (0.2 μg/mL) labeled with horseradish peroxidase (HRP) was added and allowed to stand still for one hour. After the plate was washed three times with TBS-T buffer, ABTS One Component HRP Microwell Substrate (BioFX) (100 μL) was poured to the plate. Binding activity was detected through a color reaction. The absorbance at 415 nm (O.D.415) was measured by a microplate absorbance reader Sunrise R (TECAN GROUP LTD.). TBS-T buffer containing no phages was used as a negative control in a control experiment.
ELISA results of the recombinant phages displaying polypeptides containing amino acid sequences represented by SEQ ID NOs: 2 to 9 and the recombinant phages displaying polypeptides containing amino acid sequences represented by SEQ ID NOs: 11 to 19 are shown in Table 2A and Table 2B, respectively.

[4] = molecular target: human Fc region manufactured by Jackson ImmunoResearch Laboratories, Inc.; assay: Surface plasmon resonance, synthetic polypeptides on immobilized human Fc region (Example 1, 4); type: binding; settings: synthetic polypeptide, 25° C., HBS-T buffer pH 7.4
Method: The polypeptides previously synthesized in an organic chemical manner were purchased from bio[…]. Biacore T100 (GE Healthcare) was used as a surface plasmon resonance measurement apparatus. The human Fc region manufactured by Jackson ImmunoResearch Laboratories, Inc. was immobilized to Sensor Chip CM5 (GE Healthcare) in accordance with an amine coupling method using an Amine Coupling Kit (GE Healthcare). […] The binding activity of these polypeptides was measured at a reaction temperature of 25° C. The measurement data were processed by Biacore TOO Evaluation Software (GE Healthcare).

[5] = molecular target: IgG; settings: domains by themselves; Non Patent Literature 28 and 29; cited from earlier work
[6] = molecular target: IgG; settings: Non Patent Literature 4; read-out: equilibrium dissociation constant, KD; cited from earlier work
[7] = molecular target: human IgG; settings: competitive reaction with protein A; read-out: competitive inhibitory capacity Ki; cited from earlier work
[8] = variant polypeptide with alanine substitution, read-out: Equilibrium dissociation constant of p17 variant KD
[9] = read-out: equilibrium dissociation constant KD
[10] = synthetic polypeptide, read-out: equilibrium dissociation constants KD

Sequence of rabbit IgG (P01870 101-323 limits assumed): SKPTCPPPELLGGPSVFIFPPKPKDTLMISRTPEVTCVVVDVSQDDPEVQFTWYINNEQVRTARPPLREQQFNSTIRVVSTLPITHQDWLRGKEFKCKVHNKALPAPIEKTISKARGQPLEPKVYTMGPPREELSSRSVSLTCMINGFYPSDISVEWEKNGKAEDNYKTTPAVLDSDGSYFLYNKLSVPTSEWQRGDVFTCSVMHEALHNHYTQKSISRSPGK

In the case of “peptide from a synthesized branched tetrapolypeptide library (Arg Thr Xaa)4 Lys2 Lys Gly, competitively works with protein A (Fassina et al.) [TG19318]”, the pKd [1] is listed as 6.52.
For “GPGISAFSPGRGVYDPETGTWYDAAWHLGELVWATYYDPETGTWEPDAQRMLGQ [SEQ ID NO: 176]”, the pKd [2, 8] was 6.70.
For “7 (YDPRTGTWLLYASRLLG; IgG binding peptide, G3) [compound 7]”, the “O.D. 415” value ([3]; control 0.08) was 0.214.
Substance “DAAWHLGELVWATYYDPETGTWQPDWLYMTTR [SEQ ID NO: 24]” has a pKd ([2]; synthetic polypeptide, read-out: KD) of 6.92.
With “12 (AGSRRAHGYDPRTGTWRSSIAYGGG; IgG binding peptide, 2A4) [compound 12]” the “O.D. 415” value ([3]; control 0.101) was 0.267.
With “18 (GSVVRWRGYDPRTGTWRSSIAYGGG; IgG binding peptide, 2F7) [compound 18]” the “O.D. 415” value ([3]; control 0.101) was 0.36.
“GPGISAFSPGRGVYDPETGTWYDAAWHLGELVWATYYDPETGTWEPAWQRMLGQ [SEQ ID NO: 175]” gave a pKd [2, 8] of 7.35.
“GPGISAFSPGRGVYDPETGTWYDAAWHLGELVWATYYDPETGTWEPDWQAMLGQ [SEQ ID NO: 177]” gave a pKd [2, 8] of 8.11.
RSSIAYGGG [SEQ ID NO: 22] showed a pKd ([4]; read-out: KD) of 3.96 and a pKd [4, 9] of 3.96.
For “14 (SWRRRGSSYDPRTGTWRSSIAYGGG; IgG binding peptide, 2H1) [compound 14]”, the “O.D. 415” value ([3]; control 0.101) was 0.282.
Work on “DAAWHLGELVWATYYDPETGTWLPDWQTMAQK [SEQ ID NO: 26]” yielded a pKd [2, 10] of 7.00.
In the case of “8 (YDPVTGTWTSSIASWMG; IgG binding peptide, G11) [compound 8]”, the “O.D. 415” value ([3]; control 0.08) was 0.223.
Substance “GPGISAFSPGRGVYDPETGTWYDAAWHLGELVWATYYDPETGTWEPDWQRMLGQ [SEQ ID NO: 57]” has a pKd ([2]; polypeptide obtained by protease cleavage of p17_trx, read-out: KD) of 8.80 and a pKd ([2]; polypeptide obtained by protease cleavage of p17_trx, read-out: equilibrium dissociation constant KD) of 8.80.
In the case of “protein G: bacteria-derived natural IgG-binding protein, conventionally used”, the pKd [5] is listed as ~6.31.
For “3 (YDPGTGTWRSYLRFGGG; IgG binding peptide, H3) [compound 3]”, the “O.D. 415” value ([3]; control 0.08) was 0.278.
In the case of “19 (GAVYRRSFYDPRTGTWRSSIAYRGG; IgG binding peptide, 2F9) [compound 19]”, the “O.D. 415” value ([3]; control 0.101) was 0.353.
Work on “DAAWHLGELVWATYYDPETGTWAPDWRLMQGQ [SEQ ID NO: 25]” yielded a pKd [2, 10] of 6.29.
In the case of “15 (TGRGRSARYDPRTGTWRSSIAYGGG; IgG binding peptide, 2F2) [compound 15]”, the “O.D. 415” value ([3]; control 0.101) was 0.396.
In the case of “protein A: IgG-binding protein derived from Staphylococcus, conventionally used”, the pKd [5] is listed as ~8.00.
Substance “GPGISAFSPGRGVYDPETGTWYDAAWHLGELVWATYYDPETGTWEADWQRMLGQ [SEQ ID NO: 174]” has a pKd [2, 8] of 8.25.
With “5 (YDPGTGTWRSWLSFNVG; IgG binding peptide, E7) [compound 5]” the “O.D. 415” value ([3]; control 0.08) was 0.155.
In the case of “6 (YDPWTGTWRSFIWGGGG; IgG binding peptide, sC12) [compound 6]”, the “O.D. 415” value ([3]; control 0.08) was 0.149.
In the case of “9 (YDPRTGTWRRSSLSYSG; IgG binding peptide, sA7) [compound 9]”, the “O.D. 415” value ([3]; control 0.08) was 0.193.
In the case of “4 (YDPYTGTWRSSIWVLSG; IgG binding peptide, D5) [compound 4]”, the “O.D. 415” value ([3]; control 0.08) was 0.165.
In the case of “Asp Cys Ala Trp His Leu Gly Glu Leu Val Trp Cys Thr [Fc-III]”, the pKd [6] is listed as 6.73 and the pKi [7] is listed as 7.00.
In the case of “GVVRQWSGGGGSGGGGRSSIAYGGG [SEQ ID NO: 21]”, the pKd [4, 9] was 4.64.
With “16 (HWVNGRSGYDPRTGTWRSSIAYGGG; IgG binding peptide, 2F4) [compound 16]” the “O.D. 415” value ([3]; control 0.101) was 0.373.
